From patent US20250320213A1, “Nitrogen-Containing Heterocyclic Compounds” (Pfizer Inc., priority 2024, published 2025) come the findings set out here.

For assay [1], the system named is CCL17 secretion in peripheral human whole blood. Put plainly: Human Whole Blood (HWB) CCL17 TR-FRET Assay (IL-13 stimulated CCL17 secretion). Format: cell-based. In outline: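 IC50 comes from serum CCL17 measured by a TR-FRET sandwich assay (16 h at room temperature, 665/615 nm ratio). Beforehand, blood in sodium heparin was exposed to an 11-point, 3-fold compound series for 2 h at 37°C and then to 10 ng/mL IL-13 for 48 h.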

For assay [2], the target named is T1, STAT6 (Homo sapiens, UniProt P42226).
T1 construct: stably transfected HaCaT keratinocyte cell line, which expresses NanoLuc luciferase reporter gene under the transcriptional control of the STAT6 responsive promoter; endogenous in cells; host or cells: HaCaT keratinocyte reporter cell line (stably transfected with a NanoLuc reporter)
T1 sequence (P42226 1-847): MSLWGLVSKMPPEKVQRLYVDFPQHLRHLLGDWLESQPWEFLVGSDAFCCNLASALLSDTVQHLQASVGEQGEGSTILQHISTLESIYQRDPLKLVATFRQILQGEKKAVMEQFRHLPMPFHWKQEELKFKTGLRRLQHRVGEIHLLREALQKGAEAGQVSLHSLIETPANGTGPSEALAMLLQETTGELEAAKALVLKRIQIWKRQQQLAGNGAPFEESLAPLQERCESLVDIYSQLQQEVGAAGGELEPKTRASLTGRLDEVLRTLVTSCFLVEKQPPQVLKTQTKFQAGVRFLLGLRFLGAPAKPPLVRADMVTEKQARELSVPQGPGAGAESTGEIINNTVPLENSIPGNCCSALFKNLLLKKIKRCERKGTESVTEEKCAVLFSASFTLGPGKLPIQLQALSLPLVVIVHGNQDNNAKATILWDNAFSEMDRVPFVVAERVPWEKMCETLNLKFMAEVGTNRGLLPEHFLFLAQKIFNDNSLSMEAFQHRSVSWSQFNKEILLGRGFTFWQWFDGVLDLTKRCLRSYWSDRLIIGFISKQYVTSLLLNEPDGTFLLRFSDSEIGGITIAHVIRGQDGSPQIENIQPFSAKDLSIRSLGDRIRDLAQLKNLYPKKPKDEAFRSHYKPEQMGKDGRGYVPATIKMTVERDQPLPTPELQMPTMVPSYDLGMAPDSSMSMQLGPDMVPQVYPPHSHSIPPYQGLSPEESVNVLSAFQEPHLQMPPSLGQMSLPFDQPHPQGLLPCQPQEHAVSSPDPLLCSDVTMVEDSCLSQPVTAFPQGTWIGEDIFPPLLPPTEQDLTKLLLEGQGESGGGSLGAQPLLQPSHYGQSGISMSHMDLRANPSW
Put plainly: STAT6 Reporter Luciferase Assay (IL-13 stimulated HaCaT keratinocyte NanoLuc reporter cells). It counts as cell-based. The following applies: read-out: Reporter EC50. A digest of the protocol: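 Compounds were tested as 11-point, 4-fold series in duplicate, applied for 2 h at 37 °C in low-serum (2% FBS) DMEM. The cells were a stable HaCaT line with NanoLuc under a STAT6-responsive IL-13Ra2 promoter. After 4 h with 0.12 nM IL-13, Nano-Glo luminescence was measured.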

The mark [3] stands for this setting: Homo sapiens, 48 h, human whole blood, IL-13 stimulated.
Where [4] appears, read: IL-13 stimulated HaCaT STAT6 NanoLuc reporter cells.
The mark [5] stands for this setting: STAT6 NanoLuc luciferase reporter, IL-13 stimulated HaCaT keratinocyte cells.
The mark [6] stands for this setting: Homo sapiens, 48 h, human whole blood, 10 ng/mL IL13, 48 hours.
[7] abbreviates: Homo sapiens, 48 h, inhibition of CCL17 secretion in human whole blood, 10 ng/mL IL13, 48 hours.

Like-named read-outs stand apart in the source and are kept apart here.

Consider `CCn1nc(C(=O)NCc2ccc(NC(=O)N(C)C)nc2)c2c1[C@@H](C)CN(c1ccc(C(=O)N(C)C)cn1)C2` [Example 323, (S)-5-(5-(dimethylcarbamoyl)pyridin-2-yl)-N-((6-(3,3-dimethylureido)pyridin-3-yl)methyl)-1-ethyl-7-methyl-4,5,6,7-tetrahydro-1H-pyrazolo[4,3-c]pyridine-3-carboxamide], for which the 50% inhibitory concentration (IC50) in assay [1] (setting [3]) worked out at 26 nM. Besides, the EC50 in assay [2] (setting [4]) amounted to 5 nM.

In assay [1] (setting [3]), `CC(C)n1nc(C(=O)NCc2ccc(NC(=O)N(C)C)cc2)c2c1CC(C(F)(F)F)N(c1ccc(C(=O)N(C)C)cn1)C2` (racemic) [Example 255, rac-(R)-5-(5-(dimethylcarbamoyl)pyridin-2-yl)-N-(4-(3,3-dimethylureido)benzyl)-1-isopropyl-6-(trifluoromethyl)-4,5,6,7-tetrahydro-1H-pyrazolo[4,3-c]pyridine-3-carboxamide] returned an IC50 of 48 nM. In addition, the EC50 in assay [2] (setting [4]) amounted to 3 nM.

For `CCn1nc(C(=O)NCc2ccc(NC(=O)N(C)C)cc2)c2c1[C@@H](C)[C@H](C)N(c1ccc(C(=O)N(C)C)cn1)C2` (single isomer, unassigned) [Example 352], in assay [1] (setting [3]), it took 3 nM to reach half-maximal inhibition (IC50). Also, the EC50 in assay [2] (setting [4]) came out at 0.3 nM.

In assay [1] (inhibition of CCL17 secretion in human whole blood, 10 ng/mL IL13, 48 hours), `CCC1CN(c2ccc(C(=O)N(C)C)cn2)Cc2c(C(=O)NCc3ccc(NC(=O)N(C)C)cc3)n[nH]c21` (single isomer, unassigned) [Example 83, rel-(R or S)-5-(5-(dimethylcarbamoyl)pyridin-2-yl)-N-(4-(3,3-dimethylureido)benzyl)-7-ethyl-4,5,6,7-tetrahydro-1H-pyrazolo[4,3-c]pyridine-3-carboxamide] registered a concentration for half-maximal inhibition (IC50) of 278 nM. Also, the concentration giving a half-maximal response (EC50) in assay [2] (setting [5]) amounted to 86 nM.

Regarding `Cc1csc(-c2ccc(CNC(=O)c3nn(C(C)C)c4c3CN(c3ccc(C(=O)N(C)C)cc3)C[C@@H]4C)cc2)n1` [Example 729, (S)-5-(4-(dimethylcarbamoyl)phenyl)-1-isopropyl-7-methyl-N-(4-(4-methylthiazol-2-yl)benzyl)-4,5,6,7-tetrahydro-1H-pyrazolo[4,3-c]pyridine-3-carboxamide], it took 4330 nM to reach half-maximal inhibition in assay [1] (Homo sapiens, 48 h, human whole blood, IL-13 10 ng/mL) (IC50). Also, the EC50 in assay [2] (setting [4]) is 683 nM.

In turn, `CCn1nc(C(=O)NCc2ccc(NC(=O)N(C)C)cc2)c2c1CCN(c1ncc(C(=O)N(C)C)cn1)[C@H]2C` (single isomer, unassigned) [Example 510] registered a half-inhibitory concentration (IC50) in assay [1] (setting [3]) of 8830 nM. In addition, the 50% effective concentration (EC50) in assay [2] (setting [4]) was 1520 nM.

For the molecule `CC(C)n1nc(C(=O)NCc2ccc(NC(=O)NCC(F)F)cc2)c2c1[C@@H](C)CN(c1ccc(C(=O)N(C)C)cn1)C2` [Example 579, (S)-N-(4-(3-(2,2-difluoroethyl)ureido)benzyl)-5-(5-(dimethylcarbamoyl)pyridin-2-yl)-1-isopropyl-7-methyl-4,5,6,7-tetrahydro-1H-pyrazolo[4,3-c]pyridine-3-carboxamide], the half-inhibitory concentration (IC50) in assay [1] (setting [6]) worked out at 8 nM. Moreover, in assay [2] (setting [4]), the half-maximal effective concentration (EC50) was found to be 0.4 nM.

Consider `CCOC(=O)Nc1ccc(CNC(=O)c2nn(C(C)C)c3c2CN(c2ncc(C(=O)N(C)C)cn2)C[C@@H]3C)cc1` [Example 503, ethyl (S)-(4-((5-(5-(dimethylcarbamoyl)pyrimidin-2-yl)-1-isopropyl-7-methyl-4,5,6,7-tetrahydro-1H-pyrazolo[4,3-c]pyridine-3-carboxamido)methyl)phenyl)carbamate], for which the IC50 in assay [1] (setting [3]) was 13 nM. For the same molecule, the 50% effective concentration (EC50) in assay [2] (setting [4]) was found to be 1 nM.

In assay [1] (setting [3]), `CN(C)C(=O)Nc1ccc(CNC(=O)c2nn(C3(C(F)(F)F)CC3)c3c2CN(c2ccc(C(=O)N(C)C)cn2)CC3)cc1` [Example 320, 5-(5-(dimethylcarbamoyl)pyridin-2-yl)-N-(4-(3,3-dimethylureido)benzyl)-1-(1-(trifluoromethyl)cyclopropyl)-4,5,6,7-tetrahydro-1H-pyrazolo[4,3-c]pyridine-3-carboxamide] came in with an IC50 of 135 nM. For the same molecule, the EC50 in assay [2] (setting [4]) worked out at 5 nM.

As to `CC(C)n1nc(C(=O)NCc2ccc(NC(=O)NCC3CC3)cc2)c2c1CCN(c1ccc(C(=O)N(C)C)cn1)C2` [Example 154, N-(4-(3-(cyclopropylmethyl)ureido)benzyl)-5-(5-(dimethylcarbamoyl)pyridin-2-yl)-1-isopropyl-4,5,6,7-tetrahydro-1H-pyrazolo[4,3-c]pyridine-3-carboxamide], 449 nM corresponded to half-maximal inhibition in assay [1] (setting [7]) (IC50). The EC50 in assay [2] (setting [5]) was determined as 8 nM.

For `CNC(=O)Nc1ccc(CNC(=O)c2n[nH]c3c2CN(c2ccc(C(=O)N(C)C)cn2)CC3)cc1` [Example 526, 5-(5-(dimethylcarbamoyl)pyridin-2-yl)-N-(4-(3-methylureido)benzyl)-4,5,6,7-tetrahydro-1H-pyrazolo[4,3-c]pyridine-3-carboxamide], in assay [1] (setting [3]), the concentration for half-maximal inhibition (IC50) was determined as 2040 nM. The EC50 in assay [2] (setting [4]) was found to be 4010 nM.

Turning to `CN(C)C(=O)Nc1ccc(CNC(=O)c2n[nH]c3c2CN(c2ccc(C(=O)N(C)C)cn2)CC3)cc1` [Example 18, 5-(5-(Dimethylcarbamoyl)pyridin-2-yl)-N-(4-(3,3-dimethylureido)benzyl)-4,5,6,7-tetrahydro-1H-pyrazolo[4,3-c]pyridine-3-carboxamide], in assay [1] (setting [7]), the IC50 came to 1380 nM. Besides, the concentration for a half-maximal effect (EC50) in assay [2] (setting [5]) turned out to be 1420 nM.

On to `CC(C)n1nc(C(=O)NCc2ccc(C(=O)NC3CCN(C)CC3)cc2)c2c1[C@@H](C)CN(c1ccc(C(=O)N(C)C)cn1)C2` [Example 601, (S)-5-(5-(dimethylcarbamoyl)pyridin-2-yl)-1-isopropyl-7-methyl-N-(4-((1-methylpiperidin-4-yl)carbamoyl)benzyl)-4,5,6,7-tetrahydro-1H-pyrazolo[4,3-c]pyridine-3-carboxamide], for which it took 2100 nM to reach half-maximal inhibition in assay [1] (setting [6]) (IC50). Moreover, the EC50 in assay [2] (setting [4]) was 312 nM.

In assay [1] (setting [3]), `COc1nc(N2CCc3c(c(C(=O)NCc4ccc(NC(=O)N(C)C)cc4)nn3C(C)C)C2)ccc1[C@@]1(C)CCCNC1=O` [Example 192, (R)-N-(4-(3,3-dimethylureido)benzyl)-1-isopropyl-5-(6-methoxy-5-(3-methyl-2-oxopiperidin-3-yl)pyridin-2-yl)-4,5,6,7-tetrahydro-1H-pyrazolo[4,3-c]pyridine-3-carboxamide] displayed an IC50 of 6440 nM. Further, in assay [2] (setting [4]), the EC50 is 1670 nM.

Take `CCC1Cc2c(c(C(=O)NCc3ccc(NC(=O)N(C)C)cc3)nn2CC)CN1c1ccc(C(=O)N(C)C)cn1` (racemic) [Example 116, rac-(R)-5-(5-(dimethylcarbamoyl)pyridin-2-yl)-N-(4-(3,3-dimethylureido)benzyl)-1,6-diethyl-4,5,6,7-tetrahydro-1H-pyrazolo[4,3-c]pyridine-3-carboxamide]: inhibition in assay [1] (setting [7]) was half-maximal at 61 nM (IC50). Also, the EC50 in assay [2] (setting [5]) turned out to be 10 nM.

`CC(C)n1nc(C(=O)NCc2ccc(NC(=O)N3CCCC3)cc2)c2c1[C@@H](C)CN(c1ccc(C(=O)N(C)C)cn1)C2` [Example 583, (S)-5-(5-(dimethylcarbamoyl)pyridin-2-yl)-1-isopropyl-7-methyl-N-(4-(pyrrolidine-1-carboxamido)benzyl)-4,5,6,7-tetrahydro-1H-pyrazolo[4,3-c]pyridine-3-carboxamide] showed a half-maximal inhibitory concentration (IC50) in assay [1] (setting [6]) of 17 nM. For the same molecule, the EC50 in assay [2] (setting [4]) is 1 nM.

Turning to `CCn1nc(C(=O)NCc2ccc(NC(=O)N(C)C)cc2)c2c1[C@H]1CC[C@H]1N(c1ccc(C(=O)N(C)C)cn1)C2` (single isomer, unassigned) [Example 230], in assay [1] (human whole blood, IL-13 stimulated, 48 hours), the IC50 came to 277 nM. Further, the EC50 in assay [2] (setting [4]) is 14 nM.
